Measurements from patent US9314539B2, “Nanosphere-histone acetyltransferase (HAT) activator composition, process and methods thereof” (JAWAHARLAL NEHRU CENTRE FOR ADVANCED SCIENTIFIC RESEARCH, priority 2012, dated 2016).
Like-named read-outs stand apart in the source and are kept apart here.

Columns and labels:
[1] = molecular target: T1, p300 (Homo sapiens, UniProt Q09472); assay: HAT filter binding assay with p300; assay type: biochemical; settings: for HAT activation (radioactivity counts): 200 μM, HeLa core histones as substrate
T1 sequence (Q09472 whole entry, species assumed): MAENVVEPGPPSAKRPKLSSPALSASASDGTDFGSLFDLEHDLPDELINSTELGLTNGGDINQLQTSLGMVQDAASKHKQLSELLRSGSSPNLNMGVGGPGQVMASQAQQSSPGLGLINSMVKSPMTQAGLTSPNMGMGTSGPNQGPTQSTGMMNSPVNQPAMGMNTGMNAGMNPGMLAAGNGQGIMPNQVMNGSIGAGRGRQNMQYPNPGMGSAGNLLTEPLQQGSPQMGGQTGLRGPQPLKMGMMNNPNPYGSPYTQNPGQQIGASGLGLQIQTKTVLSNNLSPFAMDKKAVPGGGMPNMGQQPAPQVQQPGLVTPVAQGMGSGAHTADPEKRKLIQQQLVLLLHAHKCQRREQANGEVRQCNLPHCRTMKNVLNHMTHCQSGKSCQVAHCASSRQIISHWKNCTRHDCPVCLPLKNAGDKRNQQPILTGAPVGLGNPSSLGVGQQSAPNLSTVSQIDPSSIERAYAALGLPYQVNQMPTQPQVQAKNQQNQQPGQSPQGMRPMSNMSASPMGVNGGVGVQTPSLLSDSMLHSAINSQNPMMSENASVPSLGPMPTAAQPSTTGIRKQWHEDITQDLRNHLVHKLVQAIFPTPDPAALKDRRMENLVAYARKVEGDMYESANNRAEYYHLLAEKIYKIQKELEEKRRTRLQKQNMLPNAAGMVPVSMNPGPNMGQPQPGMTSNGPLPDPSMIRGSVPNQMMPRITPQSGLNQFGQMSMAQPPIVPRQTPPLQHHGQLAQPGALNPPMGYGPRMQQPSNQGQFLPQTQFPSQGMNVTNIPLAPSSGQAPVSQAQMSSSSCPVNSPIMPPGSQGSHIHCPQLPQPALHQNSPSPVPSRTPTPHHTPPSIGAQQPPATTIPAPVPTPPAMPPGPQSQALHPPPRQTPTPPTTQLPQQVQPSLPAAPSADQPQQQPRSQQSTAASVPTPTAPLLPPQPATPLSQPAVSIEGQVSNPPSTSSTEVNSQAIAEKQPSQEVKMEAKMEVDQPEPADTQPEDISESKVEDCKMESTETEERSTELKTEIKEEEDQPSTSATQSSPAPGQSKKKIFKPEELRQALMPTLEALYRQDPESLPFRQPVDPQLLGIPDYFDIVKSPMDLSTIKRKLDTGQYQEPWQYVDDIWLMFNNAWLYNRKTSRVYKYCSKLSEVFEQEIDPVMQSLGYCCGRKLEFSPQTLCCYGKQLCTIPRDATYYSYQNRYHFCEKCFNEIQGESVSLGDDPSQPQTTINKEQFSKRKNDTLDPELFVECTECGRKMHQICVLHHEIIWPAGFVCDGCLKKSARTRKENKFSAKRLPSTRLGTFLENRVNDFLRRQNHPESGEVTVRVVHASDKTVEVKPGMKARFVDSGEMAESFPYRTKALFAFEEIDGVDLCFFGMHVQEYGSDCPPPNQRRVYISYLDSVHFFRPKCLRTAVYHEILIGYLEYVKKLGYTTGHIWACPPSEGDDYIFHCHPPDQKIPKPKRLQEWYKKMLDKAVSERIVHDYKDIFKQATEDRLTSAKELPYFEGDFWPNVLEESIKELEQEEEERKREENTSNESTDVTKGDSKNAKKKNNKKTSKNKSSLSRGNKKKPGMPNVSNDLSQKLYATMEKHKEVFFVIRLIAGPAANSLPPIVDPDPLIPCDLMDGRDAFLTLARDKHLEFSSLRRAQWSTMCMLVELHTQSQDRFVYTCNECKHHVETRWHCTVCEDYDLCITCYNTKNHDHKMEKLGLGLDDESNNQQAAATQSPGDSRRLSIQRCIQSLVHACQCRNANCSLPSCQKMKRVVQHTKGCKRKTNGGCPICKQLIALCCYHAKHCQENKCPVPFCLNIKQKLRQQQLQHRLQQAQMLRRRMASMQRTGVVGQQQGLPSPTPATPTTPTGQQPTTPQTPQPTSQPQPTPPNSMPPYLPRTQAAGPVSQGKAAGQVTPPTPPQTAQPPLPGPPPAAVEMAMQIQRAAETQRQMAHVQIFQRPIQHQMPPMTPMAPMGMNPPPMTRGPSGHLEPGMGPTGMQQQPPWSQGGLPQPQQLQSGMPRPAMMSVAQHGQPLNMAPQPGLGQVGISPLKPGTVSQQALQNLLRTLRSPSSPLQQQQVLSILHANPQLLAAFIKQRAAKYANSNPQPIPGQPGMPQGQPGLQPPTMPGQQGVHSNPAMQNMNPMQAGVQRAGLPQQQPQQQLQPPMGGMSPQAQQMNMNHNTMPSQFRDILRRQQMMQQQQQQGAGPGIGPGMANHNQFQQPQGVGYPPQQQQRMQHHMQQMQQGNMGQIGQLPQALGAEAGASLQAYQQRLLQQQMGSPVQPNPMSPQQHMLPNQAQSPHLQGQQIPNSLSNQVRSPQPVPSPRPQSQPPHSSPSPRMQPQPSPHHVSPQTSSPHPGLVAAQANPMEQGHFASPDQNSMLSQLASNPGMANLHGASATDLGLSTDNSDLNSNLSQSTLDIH
Description: To understand the mechanistic aspects HAT activation various small molecules are derivatized from CTPB. The initial tail less derivative of CTPB is nomenclatured as N-(4Chloro-3-trifluoromethy 1-pheny 1)-2-ethoxybenzamide [CTB]. CTB is further derivatized to TTK series of compounds (COMPOUNDS 1-9) (FIG. 29 A). These compounds are subjected to histone acetyltransferase assays (filter binding assay) to check for their ability to activate p300/CBP HAT. Core histones purified from HeLa nuclear pellet is used as the substrate and p300 purified from baculovirus infected Sf21 cells is used to determine the HAT modulation activity of these compounds. All compounds are used at a concentration of 200 μM in the HAT assays.
(§1) Highly purified HeLa core histones are incubated in HAT assay buffer at about 30° C. for a time-period of about 10 minutes with or without baculo virus expressed recombinant p300 or CBP in the presence or absence of small molecules (i.e. HAT activators). The incubation is followed by the addition of about 1 μl of 3.6 Ci/mmol ^3H-acetyl CoA (NEN-PerkinElmer) and further incubation for about 10 minutes in a final volume of 30 μl at 30° C. The mixture is blotted onto P-81 (Whatman) filter paper and radioactive counts are recorded on a Wallac 1409 liquid scintillator counter. For gel fluorographic assays, histones are isolated by trichloroacetic acid (TCA) precipitation using 25% TCA. The pellet obtained is washed twice with acetone and dissolved in 2×SDS loading dye, heated for about 5 mins and is followed by separation using 15% SDS-PAGE. Comassie staining is performed to ascertain the presence of equal loading in each reaction and is later dehydrated in DMSO for about 1 hour. Dehydrated gel is later incubated in scintillation fluid (PPO solution in DMSO) for about 45 minutes and rehydrated again in distilled water for about 4 hours. The gel is then dried using a gel drier and later exposed in an X-ray cassette using a film for about 5 days in −80° cooler. The film is then developed to obtain the intensity profiles for each of the reactions.

[2] = molecular target: T1, p300; assay: Gel fluorography HAT assay with p300; assay type: biochemical
Experimental: FIG. 2 depicts (A) filter binding assay to show activation of p300 by TTK21. […] TTK21 dissolved in DMSO is added to the reaction mixture at desired concentrations. Lane 1—Histone only, Lane 2—p300 enzyme added, Lane 3—DMSO added, Lane 4—50 μM TTK21, Lane 5—100 μM TTK21, Lane 6—200 μM TTK21 and Lane 7—275 μM TTK21.
as §1, with “Dehydrated gel is later incubated in scintillation fluid (PPO solution in DMSO) for about 45 minutes and rehydrated again in distilled water for about 4 hours. The gel is then dried using a gel drier and later exposed in an X-ray cassette using a film for about 5 days in −80° cooler. The film is then developed to obtain the intensity profiles for each of the reactions.” left out

[3] = tested on: CBP; assay: HAT filter binding and gel fluorography assays with full length FLAG-CBP; assay type: biochemical
Experimental: TTK21 dissolved in DMSO is added to the reaction mixture at desired concentrations. Lane 1—Histone only, Lane 2—CBP enzyme added, Lane 3—DMSO added, Lane 4—50 μM TTK21, Lane 5—100 μM TTK21, Lane 6—200 μM TTK21 and Lane 7—275 μM TTK21.
COMPOUND 1 is synthesized using salicylic acid as a substrate as depicted in FIG. 1. […] The concentrations of COMPOUND 1 selected for this particular assay are 50 μM, 100 μM, 200 μM and 275 μM. […] These screening experiments are also repeated with full length FLAG-CBP (FIG. 3).
Highly purified HeLa core histones are incubated in HAT assay buffer at about 30° C. for a time-period of about 10 minutes with or without baculo virus expressed recombinant p300 or CBP in the presence or absence of small molecules (i.e. HAT activators). The incubation is followed by the addition of about 1 μl of 3.6 Ci/mmol ^3H-acetyl CoA (NEN-PerkinElmer) and further incubation for about 10 minutes in a final volume of 30 μl at 30° C. The mixture is blotted onto P-81 (Whatman) filter paper and radioactive counts are recorded on a Wallac 1409 liquid scintillator counter. For gel fluorographic assays, histones are isolated by trichloroacetic acid (TCA) precipitation using 25% TCA. The pellet obtained is washed twice with acetone and dissolved in 2×SDS loading dye, heated for about 5 mins and is followed by separation using 15% SDS-PAGE. […]

[4] = tested on: HeLa cells; assay: Cell permeability: western blot of acetylated H3 in treated HeLa cells; assay type: cell-based
Experimental: (A) western blot analysis of TTK21 untreated and treated HeLa cells for 24 hours. […] Primary probing of the blot is done with AcH3 and re-probing is done by H3 antibody.

[5] = tested on: SHSY cells; assay: Cell permeability in neural cell lines; assay type: cell-based
Experimental: The cell permeability tests of COMPOUND 1 alone is also carried out in various neural cell lines such as SHSY cells and the results are found to be similar to HeLa cells.

[6] = tested on: neurons expressing double cortin; assay: Neurogenesis in dentate gyrus of hippocampus, doublecortin staining; assay type: in vivo, mice; settings: intraperitoneal; 3 days
Experimental: FIG. 18 depicts CSP-TTK21 induced neurogenesis in the inner wall of dentate gyms of mice hippocampus. […] of either CSP alone or TTK21 alone or CSP-TTK21 is injected intraperitonially into mice and after 3 days the mice are anesthetized and fixed with 4% paraformaldehyde. Brains are dissected out and post-fixed, cryoprotected and frozen. 20 μm thick sections are obtained and the results are analyzed by immunohistochemistry. Further, immunofluorescence assays are performed using antibody against double cortin. Scale bar represents 50 μm.
A-D, Immunohistochemistry analysis of the dentate gyms of mice, 3 days after intraperitonial injection of either CSP alone or CSP-TTK21 (20 mg/kg of body weight) using an antibody against doublecortin (DCX) followed by DAB staining. A typical photograph is shown (A). Scale bars: 100 μm. The timeline for injection and euthanasia is shown. h, hour; d, day. […] (C) The average of the longest dendrites associated to all DCX positive-new neuron within one hippocampus is calculated and is represented as histogram for each condition (CSP: 141.1 μm vs. CSP-TTK21: 176.9 μm, *p=0.0177, 4-6 sections/animal). (D), (A) typical cropped image from A is shown, on which the number of dendrites crossing virtual lines drawned at 60, 90 and 120 μm from the SGZ was counted (n=5 images/animal). […]

HAT activation (radioactivity counts) [1]: one of the most efficient HAT activator | concentration of maximum activation of p300 ([1]; filter binding): 250 to 275 µM | activation of p300, dose dependence ([1]; filter binding, 50-275 μM): Dose dependent activation of p300 | concentration from which activation of p300 starts ([1]; filter binding, tested 50, 100, 200, 275 μM): 5004 | concentration of maximum activation of p300 [2]: 275 µM | activation of p300, dose dependence ([2]; 50-275 μM): dose dependent manner | activation of CBP, dose dependence ([3]; 50-275 μM): dose dependent activation of CBP | concentration of maximum activation of CBP ([3]; filter binding and gel fluorography): 275 µM | cell permeability ([4]; listed as TTK21): impermeable to cells
Structure (SMILES): CCCOc1ccccc1C(=O)Nc1ccc(Cl)c(C(F)(F)F)c1 [COMPOUND 1, N-(4-Chloro-3-trifluoromethyl-phenyl)-2-n-propoxy-benzamide]
HAT activation (radioactivity counts) ([1]; listed as TTK21): significant increase in radioactivity counts compared to other compounds | cell permeability [4]: inability of the COMPOUND 1 molecule itself to enter into mammalian cells | histone H3 acetylation ([4]; 50-275 μM, 24 hrs): no alteration of histone H3 acetylation | cell permeability [5]: inability of the COMPOUND 1 molecule alone to enter into mammalian cells | double cortin expression in dentate gyrus [6]: doesn't show double cortin expression
